Entries after “also recorded” stand apart in the source; their conditions may differ.
Columns and labels:
Type in all cases: cell-based
SKOV3 CR cells [1] = experiment: apoptosis (Annexin V and Propidium Iodide staining, cleaved PARP)
Description: FIG. 2 is an illustration showing representative flow plots (A) and a bar graph (B) of SKOV3 and SKOV3 CR cells treated with cisplatin for 48 h and analyzed for Annexin V and Propidium Iodide staining by flow cytometry (A) and quantified apoptosis percentage (B). Data are represented as mean±SD from three independent experiments performed in triplicate. **p<0.01. FIG. 23 is an illustration showing the immunoblotting for the indicated targets in SKOV3 CR cells treated with vehicle (DMSO), 3 μM LY2784544, 5 μM cisplatin, or the combination for 48 hr. FIG. 24 is an illustration showing representative flow plots of SKOV3 CR cells treated with vehicle, 3 μM LY2784544, 5 μM cisplatin, or the combination (combo) for 48 hr and analyzed for Annexin V and Propidium Iodide staining by flow cytometry. Since cisplatin exerts its anticancer effect mainly through its ability to cause DNA damage, resulting in apoptosis, the apoptotic cells in both SKOV3 and SKOV CR cells were measured using Annexin V and Propidium Iodide staining. […] To test whether SKOV3 CR cells are resistant to cisplatin-induced apoptosis in vivo, both SKOV3 and SKOV3 CR cells were injected into nude mice to form xenograft tumors. Once the tumor size reached 100-150 mm^3, cisplatin was given to mice by intraperitoneal injections twice a week for 2 weeks. Three days after treatment, the apoptosis in tumors was examined by TUNEL staining. […] Currently, carboplatin is a more commonly used platinum drug employed clinically to treat ovarian patients. Ozols et al., J Clin Oncol 21: 3194-3200 (2003). Thus, it was tested whether SKOV3 CR cells are also resistant to carboplatin (Sigma-Aldrich). The effects of LY2784544 on the JAK2/STAT5 signaling pathway in both SKOV3 and SKOV3 CR cells were examined.

[2] = test system: phosphorylation of JAK2 (Y1007/1008) and STAT5 (Y694); experiment: western blot of JAK2/STAT5 signaling
Description: FIG. 22 is an illustration showing that LY2784544 down-regulates JAK2/STAT5 signaling in SKOV3 CR cells. Cells were treated with the indicated concentrations of LY2784544 for 48 hr.
FIG. 23 is an illustration showing the immunoblotting for the indicated targets in SKOV3 CR cells treated with vehicle (DMSO), 3 μM LY2784544, 5 μM cisplatin, or the combination for 48 hr.
To investigate the molecular mechanism by which the JAK2-mediated pathway regulates cisplatin resistance of ovarian cancer, the activation of the JAK2-mediated pathway in paired sensitive cell line (SKOV3, IGROV1, PEO1) and resistant cell lines (SKOV3 CR, IGROV1 CR, PEO4) was examined by western blot. Compared to cisplatin sensitive cells SKOV3 or IGROV1, the JAK2 protein levels are not changed in cisplatin resistant cells SKOV3 CR, IGROV1 CR, or PEO4.
The effects of LY2784544 on the JAK2/STAT5 signaling pathway in both SKOV3 and SKOV3 CR cells were examined.

SKOV3 cells = experiment: cell viability / proliferation (SRB) assay, SKOV3 parental cells
Description: (§1) FIG. 1 is a line graph showing the proliferation of SKOV3 parental and SKOV3 CR cells treated with increasing concentrations of cisplatin for five days. Data are represented as mean±SD from three independent experiments performed in triplicate. Indicated IC50 values represent the mean of two independent experiments performed in triplicate.
(§2) FIG. 13 is a line graph showing the proliferation of SKOV3 parental and SKOV3 CR cells treated with increasing concentrations of cisplatin and 0.4 μM LY2784544 for five days. Data are represented as mean±SD from three independent experiments performed in triplicate.
(§3) Cisplatin resistant ovarian cancer cell lines were generated using procedures as described previously. Jazaeri et al., Mol Cancer Ther 12: 1958-1967 (2013). Ovarian cancer cells SKOV3 were cultured in the medium with cisplatin (Sigma-Aldrich) for three weeks, followed by release to cisplatin-free medium for another three weeks. In the next cycle, the cisplatin treatment was repeated in the medium with an increased concentration of cisplatin. After six-cycle treatment, cells were identified that were able to grow in the medium with a high concentration of cisplatin. These cisplatin resistant cells were named as SKOV3 CR (FIG. 1).
(§4) The results obtained from combinational HTS were confirmed by testing whether LY2784544 overcomes cisplatin resistance in ovarian cancer cells using multiple assays. […] The Combination index (CI), which quantitatively describes the interaction between drugs including synergism (CI<1), additive effect (CI=1), and antagonism (CI>1), was calculated.

SKOV3 CR cells [3] = experiment: cell viability / proliferation (SRB) assay, cisplatin resistant SKOV3 CR cells
Description: as §1, §2, §3, §4

IGROV1 CR cells = experiment: cell proliferation assay, cisplatin resistant IGROV1 CR cells
Source text: as §1, with “60” for “1”, “IGROV1” for “SKOV3”, “5 days (left).” for “five days.”
FIG. 61 is a bar graph showing the synergistic effects of LY2784544 and cisplatin in IGROV1 CR cells (right). CI values are presented above the bars. CI<1 indicates synergism, […] indicates additive effect, and CI>1 indicates antagonism.
Using a similar approach as described in FIG. 1, another cisplatin resistant ovarian cancer cell line IGROV1 CR was raised from its cisplatin sensitive parental cell IGROV1 cells. […] The cell proliferation of IGROV1 CR cells treated with cisplatin, LY2784544 or both LY2784544 and cisplatin was examined.

PEO4 cells = experiment: cell proliferation assay, PEO4 cells
Source text: as §1, with “63” for “1”, “PEO1” for “SKOV3 parental”, “PEO4” for “SKOV3 CR”, “5” for “five”
FIG. 64 is a bar graph showing the synergistic effects of LY2784544 and cisplatin in PEO4 cells. CI values are presented above the bars. CI<1 indicates synergism, CI=1 indicates additive effect, and CI>1 indicates antagonism.
For ovarian cancer, recurrence more than 12 months after initial chemotherapy was considered as platinum sensitive. PEO4 was derived from the patient 10 months later when they had progressive disease and had become cisplatin resistant.

[4] = SKOV3 CR cells, 3 μM LY2784544 plus 5 μM cisplatin, 48 hr

Structure (SMILES)	apoptosis, SKOV3 versus SKOV3 CR cells (SKOV3 CR cells [1]; cisplatin for 48 h, Annexin V and Propidium Iodide staining)	JAK2/STAT5 signaling after cisplatin treatment ([2]; SKOV3 parental cells, various small doses and times of cisplatin)	IC50 (SKOV3 cells; SKOV3 parental cells, 5 days) [nM]	IC50 (SKOV3 CR cells [3]; SKOV3 CR cells, 5 days) [nM]	fold increase of IC50, IGROV1 CR vs parental IGROV1 (IGROV1 CR cells; 5 days) [fold]	IC50 (IGROV1 CR cells; IGROV1 CR cells, 5 days) [nM]	fold increase of IC50, PEO4 vs PEO1 (PEO4 cells; 5 days) [fold]	IC50 (PEO4 cells; PEO4 cells, 5 days) [nM]	apoptosis (cleaved PARP), single agent (SKOV3 CR cells [1]; SKOV3 CR cells, 3 μM LY2784544, 48 hr)	apoptosis (cleaved PARP), combination with cisplatin (SKOV3 CR cells [1]; [4])	apoptotic cells (Annexin V and Propidium Iodide), combination with cisplatin (SKOV3 CR cells [1]; [4])	phosphorylation of JAK2 and STAT5 ([2]; both SKOV3 and SKOV3 CR cells, 48 hr)	medium CI (combination index) (SKOV3 cells; combination with cisplatin, SKOV3 cells, CI<1 synergism)	effect on cell proliferation of SKOV3 (SKOV3 cells; medium with cisplatin or without cisplatin)	cisplatin IC50 shift ability (comparison of the three hits) (SKOV3 CR cells [3]; SKOV3 CR cells)	sensitization of SKOV3 CR cells to cisplatin (proliferation) (SKOV3 CR cells [3]; combination with cisplatin at different doses, FIG. 13: 0.4 μM LY2784544, five days)	medium CI (combination index) (SKOV3 CR cells [3]; combination with cisplatin, SKOV3 CR cells, CI<1 synergism)	medium CI (combination index) (IGROV1 CR cells; combination with cisplatin, IGROV1 CR cells)	medium CI (combination index) (PEO4 cells; combination with cisplatin, PEO4 cells)
N.N.[Cl][Pt][Cl] [cisplatin]	induced more apoptosis in SKOV3 cells than in SKOV3 CR cells	JAK2/STAT5 signaling was activated	2000	10400	2.9	1500	6.2	1990											
Cc1cc(Nc2cc(CN3CCOCC3)c3nc(C)c(Cc4ccc(Cl)cc4F)n3n2)n[nH]1 [LY2784544]									did not cause apoptosis	induced apoptotic cell death	significant increase of apoptotic cells	significantly reduced the phosphorylation of JAK2 as well as the phosphorylation of STAT5	0.93	did not affect the cell proliferation of SKOV3	better cisplatin IC50 shift ability than MLN4924 or NSC319726	significantly increased the sensitivity of SKOV3 CR cells to cisplatin; also recorded: re-sensitized SKOV3 CR cells to cisplatin	0.69	0.71	0.34

— US20200031920A1, “Combination Therapy for Treating Cancer” (The George Washington University, priority 2017, published 2020)
